Data from PMC6216040, “Repurposing of an old drug: In vitro and in vivo efficacies of buparvaquone against Echinococcus multilocularis” (International Journal for Parasitology: Drugs and Drug …, 2018).
Where two headings read alike, the source gives them in different places.

Tested on: E. multilocularis metacestodes
Assay: PGI-assay: drug-induced damage on in vitro cultured metacestodes (Pathogen Box screening cascade and EC50)
Assay type: cell-based, Echinococcus multilocularis
Settings: for PGI release, % of the Tx-100 control, 5d / PGI release, % of the Tx-100 control, 12d / cytotoxicity at 10 µM: 10 µM, singlets; for cytotoxicity at 10 µM: Echinococcus multilocularis
[1] = 120 h, 5 days of incubation, read-out: PGI release, % of the Tx-100 control, 5d
[2] = 288 h, 12 days of incubation, read-out: PGI release, % of the Tx-100 control, 12d
[3] = confirmatory screening at 10 µM in triplicates, 5 days of incubation, values as % of Tx-100 control
[4] = confirmatory screening at 10 µM in triplicates, 12 days of incubation, values as % of Tx-100 control

Structure (SMILES): O=C(C(Cc1c[nH]c2ccccc12)NS(=O)(=O)c1ccc(Cl)cc1)N1CCCCC1 (stereo not drawn) [MMV085210]
- PGI release, % of the Tx-100 control, 5d (5 days of incubation): -0.40%
- PGI release, % of the Tx-100 control, 12d (12 days of incubation): 0.0121%

Structure (SMILES): O=C(NCCc1ccccc1)c1cc(-c2cccnc2)cnc1NCC1CC1 [MMV026490]
- PGI release, % of the Tx-100 control, 5d (5 days of incubation): -0.0463%
- PGI release, % of the Tx-100 control, 12d (12 days of incubation): -0.43%

Structure (SMILES): O=C(NCc1ccoc1)N1CCN(Cc2ccc3c(c2)OCO3)CC1 [MMV688553]
- PGI release, % of the Tx-100 control, 5d (5 days of incubation): 0.80%
- PGI release, % of the Tx-100 control, 12d (12 days of incubation): -2.91%

Structure (SMILES): NCC[C@H](O)C(=O)N[C@@H]1C[C@H](N)[C@@H](O[C@H]2O[C@H](CN)[C@@H](O)[C@H](O)[C@H]2O)[C@H](O)[C@H]1O[C@H]1O[C@H](CO)[C@@H](O)[C@H](N)[C@H]1O [MMV687796, Amikacin, reference compound]
- cytotoxicity at 10 µM [1]: -1.34%
- cytotoxicity at 10 µM [2]: -4.62%

Structure (SMILES): CC1CC1C(=O)NC1CCN(CC2(c3ccccc3)CCCCC2)CC1 (stereo not drawn) [MMV020120]
- PGI release, % of the Tx-100 control, 5d (5 days of incubation): -0.34%
- PGI release, % of the Tx-100 control, 12d (12 days of incubation): -0.45%

Structure (SMILES): C[C@H](C(N)=O)N1CCCC[C@@H]1c1ccc(OCc2cccc(F)c2)cc1 [MMV676270]
- PGI release, % of the Tx-100 control, 5d (5 days of incubation): -0.98%
- PGI release, % of the Tx-100 control, 12d (12 days of incubation): -0.91%

Structure (SMILES): FC(F)(F)c1cnc(Sc2nnc(-c3ccncc3)o2)c(Cl)c1 [MMV011765]
- PGI release, % of the Tx-100 control, 5d (5 days of incubation): 0.33%
- PGI release, % of the Tx-100 control, 12d (12 days of incubation): 0.66%

Structure (SMILES): COc1ccc(CN2CCOc3ccc(C(C)(O)CN(C)C)cc3C2)cc1C (stereo not drawn) [MMV008439]
- PGI release, % of the Tx-100 control, 5d (5 days of incubation): -0.31%
- PGI release, % of the Tx-100 control, 12d (12 days of incubation): -1.11%

Structure (SMILES): COc1cccc(-n2nnnc2S(C)(=O)=O)c1 [MMV272144]
- PGI release, % of the Tx-100 control, 5d (5 days of incubation): -0.69%
- PGI release, % of the Tx-100 control, 12d (12 days of incubation): 0.11%

Structure (SMILES): CN1CCN(CCCOc2ncc(Nc3ncc(-c4ccc(C(F)(F)F)c(F)c4)nc3C(N)=O)cn2)CC1 [MMV687812]
- PGI release, % of the Tx-100 control, 5d (5 days of incubation): 18.86%
- PGI release, % of the Tx-100 control, 12d (12 days of incubation): 22.66%
- PGI release, % of Tx-100 control, average, 5d [3]: 3.65%
- PGI release, % of Tx-100 control, average, 12d [4]: 4.79%

Structure (SMILES): O=C(NC1=NCCS1)c1sc2cc(F)ccc2c1Cl [MMV676584]
- PGI release, % of the Tx-100 control, 5d (5 days of incubation): -1.36%
- PGI release, % of the Tx-100 control, 12d (12 days of incubation): 1.53%

Structure (SMILES): CN1CCN(S(=O)(=O)c2ccc(-c3ccc4c(Nc5ncc(Cl)cn5)ccnc4c3)cc2)CC1 [MMV688283]
- PGI release, % of the Tx-100 control, 5d (5 days of incubation): 0.90%
- PGI release, % of the Tx-100 control, 12d (12 days of incubation): -1.47%

Structure (SMILES): [H]/N=C(/N)N[C@H]1[C@H](O)[C@@H](O)[C@H](O[C@@H]2O[C@@H](C)[C@](O)(C=O)[C@H]2O[C@@H]2O[C@@H](CO)[C@H](O)[C@@H](O)[C@@H]2NC)[C@@H](N/C(N)=N\[H])[C@@H]1O [MMV688994, Streptomycin, reference compound]
- cytotoxicity at 10 µM [1]: -0.55%
- cytotoxicity at 10 µM [2]: 0.19%

Structure (SMILES): O=C(c1ccc(F)cc1)N(CCNc1ccccc1)c1ccccc1 [MMV676204]
- PGI release, % of the Tx-100 control, 5d (5 days of incubation): 0.89%
- PGI release, % of the Tx-100 control, 12d (12 days of incubation): 22.26%
- PGI release, % of Tx-100 control, average, 5d [3]: -0.89%
- PGI release, % of Tx-100 control, average, 12d [4]: -0.80%

Structure (SMILES): CCCc1ccc(S(=O)(=O)Nc2ccc(CN3CCN(CC4CC4)CC3)cc2)cc1 [MMV688125]
- PGI release, % of the Tx-100 control, 5d (5 days of incubation): -0.08%
- PGI release, % of the Tx-100 control, 12d (12 days of incubation): -1.69%

Structure (SMILES): CC(C)C(NC(=O)Cc1cccc2ccccc12)C(=O)Nc1cccc(C#N)c1 (stereo not drawn) [MMV020591]
- PGI release, % of the Tx-100 control, 5d (5 days of incubation): -0.00326%
- PGI release, % of the Tx-100 control, 12d (12 days of incubation): 0.72%

Structure (SMILES): O=C(NCCN1CCCC1)c1cc(NCCN2CCOCC2)nc2ccc(Cl)cc12 [MMV634140]
- PGI release, % of the Tx-100 control, 5d (5 days of incubation): 0.01%
- PGI release, % of the Tx-100 control, 12d (12 days of incubation): -0.0759%

Structure (SMILES): CNc1snc(C)c1C(=O)NCCOc1ccc(OC)cc1 [MMV688554]
- PGI release, % of the Tx-100 control, 5d (5 days of incubation): -1.97%
- PGI release, % of the Tx-100 control, 12d (12 days of incubation): 1.18%

Structure (SMILES): CN1CCCC1CCO[C@](C)(c1ccccc1)c1ccc(Cl)cc1 (stereo partly drawn) [MMV637229]
- PGI release, % of the Tx-100 control, 5d (5 days of incubation): 4.53%
- PGI release, % of the Tx-100 control, 12d (12 days of incubation): 10.67%

Structure (SMILES): c1ccc(-c2[nH]c3ccccc3c2C(c2ccccn2)N2CCCC2)cc1 (stereo not drawn) [MMV688762]
- PGI release, % of the Tx-100 control, 5d (5 days of incubation): 0.82%
- PGI release, % of the Tx-100 control, 12d (12 days of incubation): 0.77%

Structure (SMILES): FC(F)(F)c1cc(NCCc2ccccc2)nc(-c2ccccn2)n1 [MMV659010]
- PGI release, % of the Tx-100 control, 5d (5 days of incubation): 0.61%
- PGI release, % of the Tx-100 control, 12d (12 days of incubation): 3.66%

Structure (SMILES): Cc1ccc(NC(=O)c2nc[nH]c2C(=O)Nc2nc3ccccc3[nH]2)c(C)c1 [MMV011903]
- PGI release, % of Tx-100 control, average, 5d (1 µM, triplicates, 5 days of incubation): -2.96%
- PGI release, % of Tx-100 control, average, 12d (1 µM, triplicates, 12 days of incubation): -9.52%
- activity in the screen at 10 μM (confirmed in triplicates, >20% relative PGI release) (10 μM, 5 and 12 days): active
- PGI release, % of the Tx-100 control, 5d (5 days of incubation): 41.66%
- PGI release, % of the Tx-100 control, 12d (12 days of incubation): 94.00%
- PGI release, % of Tx-100 control, average, 5d [3]: 4.49%
- PGI release, % of Tx-100 control, average, 12d [4]: 34.00%

Structure (SMILES): COc1cc(Br)cc2cc(C(=O)Nc3cccc(C(F)(F)F)c3)c(=O)oc12 [MMV688891]
- PGI release, % of the Tx-100 control, 5d (5 days of incubation): -4.56%
- PGI release, % of the Tx-100 control, 12d (12 days of incubation): -1.74%

Structure (SMILES): c1cc(C2=NCCN2)cc(-c2cc(-c3ccc(C4=NCCN4)cc3)no2)c1 [MMV688361]
- PGI release, % of the Tx-100 control, 5d (5 days of incubation): -0.63%
- PGI release, % of the Tx-100 control, 12d (12 days of incubation): -1.49%
